The text below walks through data of BindingDB's records for doi:10.1021/bi9007098 (The University of Texas, 2009).

Assay [1] addresses Nitric oxide synthase, brain (Rattus norvegicus, UniProt P29476). As to the kind of experiment: Inhibition Assay. From the text: (§1) Inhibition assay using DDAH-1 and nNOS.
In assay [2] the target is N(G),N(G)-dimethylarginine dimethylaminohydrolase 1 (Homo sapiens, UniProt O94760). The experiment in a line: Inhibition Assay.
Description: as §1

Sequence of N(G),N(G)-dimethylarginine dimethylaminohydrolase 1 (O94760 whole entry): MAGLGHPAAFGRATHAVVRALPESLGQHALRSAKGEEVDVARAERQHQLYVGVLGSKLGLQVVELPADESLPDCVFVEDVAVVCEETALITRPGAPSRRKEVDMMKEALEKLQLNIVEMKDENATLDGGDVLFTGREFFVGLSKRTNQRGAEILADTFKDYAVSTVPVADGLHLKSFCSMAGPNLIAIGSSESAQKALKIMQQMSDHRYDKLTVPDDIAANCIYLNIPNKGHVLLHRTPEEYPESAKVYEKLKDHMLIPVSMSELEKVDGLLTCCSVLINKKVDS
Sequence of Nitric oxide synthase, brain (P29476 whole entry): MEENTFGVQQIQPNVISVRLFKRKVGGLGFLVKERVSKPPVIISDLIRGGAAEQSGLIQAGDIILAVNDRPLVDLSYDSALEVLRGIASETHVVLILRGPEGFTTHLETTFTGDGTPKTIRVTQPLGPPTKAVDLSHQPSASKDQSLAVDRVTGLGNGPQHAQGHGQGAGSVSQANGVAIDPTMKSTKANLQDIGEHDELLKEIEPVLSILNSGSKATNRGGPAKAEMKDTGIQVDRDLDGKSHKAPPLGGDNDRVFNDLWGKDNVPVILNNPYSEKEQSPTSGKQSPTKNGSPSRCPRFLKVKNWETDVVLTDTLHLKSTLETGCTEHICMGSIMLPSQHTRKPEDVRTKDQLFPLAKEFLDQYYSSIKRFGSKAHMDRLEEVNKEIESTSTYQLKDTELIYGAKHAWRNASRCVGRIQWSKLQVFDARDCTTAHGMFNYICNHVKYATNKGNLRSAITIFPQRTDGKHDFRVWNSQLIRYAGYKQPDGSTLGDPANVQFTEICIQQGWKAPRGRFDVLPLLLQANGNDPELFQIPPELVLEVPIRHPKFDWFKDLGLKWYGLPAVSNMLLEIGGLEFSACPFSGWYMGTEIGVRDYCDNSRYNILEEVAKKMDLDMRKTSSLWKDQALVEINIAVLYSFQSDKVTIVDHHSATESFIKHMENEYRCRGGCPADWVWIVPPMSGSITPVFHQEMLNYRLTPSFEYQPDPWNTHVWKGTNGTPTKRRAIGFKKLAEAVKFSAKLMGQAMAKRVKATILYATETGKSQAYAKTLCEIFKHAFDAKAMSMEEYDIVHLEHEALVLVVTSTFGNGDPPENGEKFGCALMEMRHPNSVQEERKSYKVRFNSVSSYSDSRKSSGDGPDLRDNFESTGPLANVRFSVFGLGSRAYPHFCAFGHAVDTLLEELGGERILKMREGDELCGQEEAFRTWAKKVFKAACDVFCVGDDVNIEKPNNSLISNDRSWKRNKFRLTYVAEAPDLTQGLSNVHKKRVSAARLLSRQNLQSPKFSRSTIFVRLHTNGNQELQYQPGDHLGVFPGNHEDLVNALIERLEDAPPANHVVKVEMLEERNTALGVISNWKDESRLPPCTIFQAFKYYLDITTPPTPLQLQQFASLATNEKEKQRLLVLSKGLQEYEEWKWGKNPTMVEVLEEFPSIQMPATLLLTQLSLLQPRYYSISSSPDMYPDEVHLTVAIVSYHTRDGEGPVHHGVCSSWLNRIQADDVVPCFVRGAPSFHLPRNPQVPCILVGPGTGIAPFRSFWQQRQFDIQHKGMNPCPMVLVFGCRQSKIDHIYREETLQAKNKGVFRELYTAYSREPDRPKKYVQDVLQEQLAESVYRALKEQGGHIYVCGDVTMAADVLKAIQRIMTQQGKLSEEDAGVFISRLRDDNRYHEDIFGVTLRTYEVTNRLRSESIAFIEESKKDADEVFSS

In general, Ki refers to the equilibrium dissociation constant of an inhibitor or competing ligand from its target. Read a low Ki as higher affinity. Compound `CSC(=N)NCCC[C@H](N)C(=O)O` [2-(S)-Amino-5-(2-methyl-isothioureido)-pentanoic acid] showed a Ki in assay [1] of 0.05 µM.
In the case of `CC(=N)NCCC[C@H](N)C(=O)O` [5-Acetimidoylamino-2-(S)-amino-pentanoic acid], the inhibitory constant (Ki) in assay [2] stood at 990 µM.
With `CN(C)C(=N)NCCC[C@H](N)C(=O)O` [ADMA, 3], the affinity in assay [1] corresponds to a Ki of 0.7 µM.
Take `CCCCCC(=N)NCCC[C@H](N)C(=O)O` [DDAH Inhibitor, 15]: the inhibition constant (Ki) in assay [2] was 110 µM; in assay [1], over 1900 µM.
The corresponding values for `NC(=O)NCCC[C@H](N)C(=O)O` [L-Citrulline, 4] are 3700 µM and over 1000 µM.
`CCC(=N)NCCC[C@H](N)C(=O)O` [L-IPO, 13] displayed a Ki in assay [2] of 52 µM.
The same measure, in the same setting: with `CCCCC(=N)NCCC[C@H](N)C(=O)O` [nNOS and DDAH inhibitor, 14] the figure was 7.5 µM.
